Patent publication US9375004B2 (Bayer Intellectual Property GmbH, priority 2010, dated 2016)
Like-named read-outs stand apart in the source and are kept apart here.

How the values were obtained:
Pyricularia oryzae = format: in vivo
Pyrenophora teres = experiment: Pyrenophora teres-test (barley)/preventive; format: in vivo; conditions: 500 ppm, preventive, evaluated 8 days after inoculation
Cochliobolus miyabeanus = experiment: Cochliobolus test (rice)/protective; format: in vivo; conditions: 250 ppm, protective, evaluated 4 days after inoculation
Septoria tritici = experiment: Septoria tritici-test (wheat)/preventive; format: in vivo; conditions: 500 ppm, preventive, evaluated 21 days after inoculation
Alternaria solani = experiment: Alternaria test (tomato)/preventive; format: in vivo; conditions: 500 ppm, preventive, evaluated 7 days after inoculation
Puccinia triticina = experiment: Puccinia triticina-test (wheat)/preventive; format: in vivo; conditions: 500 ppm, preventive, evaluated 8 days after inoculation
[1] = logP by HPLC on reversed-phase column (EEC Directive 79/831 Annex V.A8); conditions: HPLC on reversed-phase column (C 18), EEC Directive 79/831 Annex V.A8
Rhizoctonia solani = experiment: Rhizoctonia test (rice)/protective; format: in vivo; conditions: 250 ppm, protective, evaluated 4 days after inoculation
Experimental: Rhizoctonia Test (Rice)/Protective
Solvent: 28.5 parts by weight of acetone
Emulsifier: 1.5 part by weight of alkylaryl polyglycol ether
1 day after the treatment, the plants are inoculated with hyphae of Rhizoctonia solani.
Evaluation is carried out 4 days after the inoculation.

Uromyces appendiculatus = conditions: 100 ppm, beans, preventive, evaluated 10 days after inoculation
Sphaerotheca fuliginea = experiment: Sphaerotheca test (cucumber)/preventive; format: in vivo; conditions: 500 ppm, preventive, evaluated 7 days after inoculation
Venturia inaequalis = experiment: Venturia test (apples)/preventive; conditions: 100 ppm, preventive, evaluated 10 days after inoculation
Experimental: Venturia Test (Apples)/Preventive
(§1) Solvent: 24.5 parts by weight of acetone • 24.5 parts by weight of N,N-dimethylformamide
(§2) Emulsifier: 1 part by weight of alkylaryl polyglycol ether
After the spray coating has dried on, the plants are inoculated with an aqueous conidia suspension of the causal agent of apple scab (Venturia inaequalis) and then remain for 1 day in an incubation cabinet at approximately 20° C. and a relative atmospheric humidity of 100%.
The plants are then placed in a greenhouse at approximately 21° C. and a relative atmospheric humidity of approximately 90%.
The test is evaluated 10 days after the inoculation.

Botrytis cinerea = experiment: Botrytis test (beans)/preventive; conditions: 100 ppm, preventive, lesion size 2 days after inoculation
Experimental: Botrytis Test (Beans)/Preventive
as §1, §2
After the spray coating has dried on, 2 small pieces of agar covered with growth of Botrytis cinerea are placed on each leaf. The inoculated plants are placed in a darkened chamber at 20° C. and a relative atmospheric humidity of 100%.
2 days after the inoculation, the size of the lesions on the leaves is evaluated.

[2] = test system: Fusarium nivale (var. majus); experiment: Fusarium nivale (var. majus)-test (wheat)/preventive; conditions: for Efficacy: preventive, evaluated 5 days after inoculation
Experimental: Fusarium Nivale (Var. Majus)-Test (Wheat)/Preventive
Solvent: 49 parts by weight of N,N-dimethylacetamide
as §2
After the spray coating has been dried, the plants are slightly injured by using a sandblast and afterwards they are sprayed with a conidia suspension of Fusarium nivale (var. majus).
The plants are placed in the greenhouse under a translucent incubation cabinet at a temperature of approximately 10° C. and a relative atmospheric humidity of approximately 100%.
The test is evaluated 5 days after the inoculation.

Phakopsora pachyrhizi = experiment: Phakopsora test (soybeans)/protective; format: in vivo; conditions: 250 ppm, protective, evaluated 11 days after inoculation

| Compound | Efficacy (Pyricularia oryzae; 100 ppm, rice, protective, evaluated 5 days after inoculation) | Efficacy (Pyricularia oryzae; 250 ppm, rice, protective, evaluated 5 days after inoculation) | protection (Pyricularia oryzae; dose of 100 ppm and 250 ppm of active ingredient, rice) | Efficacy (Pyrenophora teres) | Efficacy (Cochliobolus miyabeanus) | Efficacy (Pyricularia oryzae; in vivo) | Efficacy (Septoria tritici) | Efficacy (Alternaria solani) | Efficacy (Puccinia triticina) | logP [1] | Efficacy (Rhizoctonia solani) | Efficacy (Uromyces appendiculatus) | Efficacy (Sphaerotheca fuliginea) | Efficacy (Venturia inaequalis) | Efficacy (Botrytis cinerea) | Efficacy ([2]; 250 ppm) | Efficacy ([2]; 500 ppm) | protection ([2]; dose of 250 ppm and 500 ppm of active ingredient) | Efficacy (Phakopsora pachyrhizi) | Efficacy (Uromyces appendiculatus; listed as 105 from this invention) |
| --- | --- | --- | --- | --- | --- | --- | --- | --- | --- | --- | --- | --- | --- | --- | --- | --- | --- | --- | --- | --- |
| Cn1cc(C(=O)Nc2ccc(F)cc2-c2ccc(Cl)c(Cl)c2)c(C(F)F)n1 [11 from WO-2003/070705, N-(3′,4′-dichloro-5-fluorobiphenyl-2-yl)-3-(difluoromethyl)-1-methyl-1H-pyrazole-4-carboxamide, reference compound] | 20% | 80% | poor (less than 20%) protection to good (at least 70%) protection | – | – | – | – | – | – | – | – | – | – | – | – | – | – | – | – | – |
| CC(C)CCc1ccccc1NC(=O)c1c(C(F)F)nn(C)c1F [Example 7] | – | – | – | 100% | 80% | 97% | 88% | 95% | 100% | 3.60 | 100% | – | – | – | – | – | – | – | – | – |
| CC(C)CC(C)c1ccccc1NC(=O)c1c(C(F)F)nn(C)c1F (centres unmarked) [Example 11] | – | – | – | 100% | – | – | 89% | 100% | 100% | 3.85 | 100% | 100% | 100% | 100% | 95% | – | – | – | – | – |
| CCCCCc1ccccc1NC(=O)c1c(C(F)F)nn(C)c1Cl [Example 12] | – | – | – | 100% | – | 93% | 71% | – | 100% | 4.01 | 100% | 100% | – | 100% | 99% | 71% | 86% | at least 70% | – | – |
| CC(CC(C)(C)C)c1ccccc1NC(=O)c1c(C(F)F)nn(C)c1Cl (centres unmarked) [Example 22] | – | – | – | 100% | – | 80% | – | – | 100% | 4.31 | 100% | 100% | – | 100% | 100% | – | 86% | – | – | – |
| Cn1nc(C(F)F)c(C(=O)Nc2ccccc2CC[Si](C)(C)C)c1Cl [Example 24] | – | – | – | 86% | – | 98% | – | – | 100% | 4.36 | 100% | 100% | – | 100% | 78% | – | 86% | – | – | – |
| Cn1nc(C(F)F)c(C(=O)Nc2ccccc2OC(F)(F)C(F)C(F)(F)F)c1Cl (centres unmarked) [Example 31] | – | – | – | – | 80% | 98% | – | 100% | – | 3.71 | 100% | – | 91% | – | – | – | – | – | – | – |
| Cn1nc(C(F)F)c(C(=O)Nc2ccccc2C2CC3CCC2C3)c1F (centres unmarked) [Example 51] | – | – | – | 100% | – | – | 80% | 95% | 71% | 3.78 | – | 100% | 96% | 100% | 100% | – | – | – | 93% | – |
| CC(C)C1C2CCC1c1c(NC(=O)c3c(C(F)F)nn(C)c3Cl)cccc12 (centres unmarked) [Example 67] | – | – | – | 100% | 90% | 96% | 100% | – | 100% | 4.55 | 100% | 100% | – | 100% | 99% | 71% | 100% | – | – | – |
| Cn1nc(C(F)F)c(C(=O)Nc2ccc(F)cc2-c2ccc(Cl)cc2)c1Cl [Example 83] | – | – | – | – | – | – | – | 94% | – | 3.76 | – | 100% | 100% | 100% | 100% | – | – | – | 94% | – |
| Cn1nc(C(F)F)c(C(=O)Nc2ccc(F)cc2-c2ccc(Cl)cc2)c1F [Example 84] | – | – | – | – | – | – | – | 94% | – | 3.46 | – | 99% | – | 100% | 99% | – | – | – | 80% | – |
| Cn1nc(C(F)F)c(C(=O)Nc2ccccc2-c2cccc(Cl)c2)c1F [Example 86] | – | – | – | 100% | – | – | 86% | 95% | 100% | 3.55 | – | 100% | – | 100% | 100% | – | 71% | – | – | – |
| Cn1nc(C(F)F)c(C(=O)Nc2ccc(F)cc2-c2ccc(Cl)c(F)c2)c1Cl [Example 98] | – | – | – | 100% | 93% | – | – | – | 100% | 3.74 | 100% | 100% | – | 100% | 100% | – | 86% | – | – | – |
| Cn1nc(C(F)F)c(C(=O)Nc2ccccc2-c2ccc(Cl)c(F)c2)c1Cl [Example 99] | – | – | – | 100% | 95% | – | 86% | – | 100% | 3.71 | 100% | 100% | – | 100% | 97% | – | 100% | – | – | – |
| Cn1nc(C(F)F)c(C(=O)Nc2ccccc2-c2ccc(Cl)c(F)c2)c1F [Example 100] | – | – | – | 100% | – | – | 100% | 80% | 100% | 3.45 | – | 99% | 100% | 99% | 99% | – | 90% | – | – | – |
| Cn1nc(C(F)F)c(C(=O)Nc2ccccc2-c2cc(F)c(F)c(F)c2)c1Cl [Example 105] | – | – | – | 100% | 95% | – | – | – | 100% | 3.52 | 100% | – | – | 100% | 100% | – | 100% | – | – | 100% |
| Cn1nc(C(F)F)c(C(=S)Nc2ccccc2-c2cc(F)c(F)c(F)c2)c1F [Example 106] | – | – | – | 100% | – | – | 80% | 90% | 100% | 3.65 | – | 100% | 98% | 100% | – | – | – | – | – | – |
| Cn1nc(C(F)F)c(C(=O)Nc2ccc(F)cc2-c2ccc(Cl)c(Cl)c2)c1Cl [Example 117] | – | – | – | 100% | – | – | – | – | 100% | 4.04 | – | 100% | – | 100% | 99% | – | – | – | 98% | – |
| Cn1nc(C(F)F)c(C(=O)Nc2ccc(F)cc2-c2ccc(C(F)(F)F)cc2)c1F [Example 118] | – | – | – | 100% | – | – | 86% | 100% | 100% | 3.60 | – | 95% | 100% | 100% | 100% | – | 71% | – | – | – |
| Cn1nc(C(F)F)c(C(=O)Nc2ccccc2-c2ccc(Br)cc2)c1F [Example 139] | – | – | – | 100% | 95% | – | 100% | – | 100% | 3.56 | 100% | 100% | – | 100% | 100% | – | 93% | – | – | – |
| Cn1nc(C(F)F)c(C(=O)Nc2ccccc2-c2ccc(C(F)(F)F)c(F)c2)c1F [Example 149] | – | – | – | 100% | – | – | 100% | 100% | 100% | 3.46 | – | 100% | 100% | 100% | 99% | – | 93% | – | – | – |
| Cn1nc(C(F)F)c(C(=S)Nc2ccccc2-c2ccc(C(F)(F)F)c(F)c2)c1Cl [Example 151] | – | – | – | 100% | – | – | 93% | 95% | 100% | 4.06 | – | – | 98% | – | – | – | 100% | – | – | – |
| Cn1nc(C(F)F)c(C(=O)Nc2ccccc2-c2ccc(Br)c(Cl)c2)c1Cl [Example 153] | – | – | – | 100% | – | – | 86% | 90% | 100% | 4.19 | – | 100% | 100% | 95% | 75% | – | 93% | – | – | – |
| CC(C)OCc1cccc(NC(=O)c2c(C(F)F)nn(C)c2F)c1 [Example 166] | – | – | – | – | 80% | – | – | – | – | 2.72 | – | – | – | – | – | – | – | – | – | – |
